# Values of other authors in publication PMC13095657, “A two-step mechanism for sugar translocation” (Nature Structural & Molecular Biology, 2026).
# Target: T1, XylE (Escherichia coli, UniProt P0AGF4)
# T1 construct: made in house; host or cells: E. coli BL21-Gold (DE3)
# Details: XylE WT in liposomes; ref https://www.jbc.org/action/showPdf?pii=S0021-9258%2821%2901315-6; read-out: KM by SSM
# T1 sequence (P0AGF4 whole entry): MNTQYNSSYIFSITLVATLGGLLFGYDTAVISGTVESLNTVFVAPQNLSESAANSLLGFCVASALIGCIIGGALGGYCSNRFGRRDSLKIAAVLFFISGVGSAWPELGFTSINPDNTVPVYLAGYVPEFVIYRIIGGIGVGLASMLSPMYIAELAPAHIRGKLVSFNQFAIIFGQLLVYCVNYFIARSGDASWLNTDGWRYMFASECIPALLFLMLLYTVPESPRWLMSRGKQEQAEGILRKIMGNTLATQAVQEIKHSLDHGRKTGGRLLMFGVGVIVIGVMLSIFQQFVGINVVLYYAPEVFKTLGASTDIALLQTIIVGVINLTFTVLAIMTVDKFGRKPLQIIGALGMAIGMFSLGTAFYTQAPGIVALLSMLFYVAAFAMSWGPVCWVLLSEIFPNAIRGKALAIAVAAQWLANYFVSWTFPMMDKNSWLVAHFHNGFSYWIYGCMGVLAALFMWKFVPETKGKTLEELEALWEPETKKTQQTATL
smiles,measurement,value
OC1OC[C@@H](O)[C@H](O)[C@H]1O (stereo partly drawn) [D-xylose],Km,1700 µM
